We go through 1 compound from article PMC2229473 (The Journal of General Physiology, 1999).

Assay [1] has as its target T1, KcsA K^+ channel (Streptomyces lividans, UniProt P0A334).
T1 sequence (P0A334 1-160): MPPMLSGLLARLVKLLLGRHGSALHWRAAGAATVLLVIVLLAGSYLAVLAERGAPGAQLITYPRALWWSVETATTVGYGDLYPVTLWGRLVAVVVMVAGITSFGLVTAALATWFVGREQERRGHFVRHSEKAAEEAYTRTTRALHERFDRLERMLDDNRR
Kind of assay: single-channel recording in planar lipid bilayer, block of open-channel current. It counts as biochemical.

Assay [2] has as its target T2, KcsA K^+ channel (Streptomyces lividans, UniProt P0A334, Y82C).
T2 sequence (P0A334 1-160 Y82C): T1 sequence (P0A334 1-160)
The description is as above. It counts as biochemical.

On to `CC[N+](CC)(CC)CC` [TEA, tetraethylammonium], for which the Ki stood at 3.2 mM in assay [1] and 23 mM in assay [2].

For orientation: Ki means a measure of affinity in units of concentration, obtained from inhibition or displacement.
